Experimental data as given in patent publication US7205382B2, “Peptides, the production and use thereof for binding immunoglobulins” (Fresenius Medical Care Affina GmbH, priority 2000, dated 2007).
Bridge positions count the residues as written; N and C are the ends. Square brackets hold non-standard residues; d marks the D form. Ends that are not written are not given here. cellulose = not defined here; βAla = NCCC(=O)O

Legend:
Type in all cases: binding
Parameters in all cases: key: No binding of immunoglobulin for the defined peptide variant, detection negative: 0; Binding of immunoglobulin for the defined peptide variant, detection positive: +
[1] = test system: human IgG-Fc; assay: Cellulose-immobilized 13-mer peptide variants incubated with human IgG-Fc, anti-human IgG-AP detection; settings: IgG-Fc 1 μg/ml in blocking buffer, 3 h room temperature
Procedure, shortened: (§1)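 SPOT-type 13-mer peptides on cellulose with a (βA)(βA) spacer, blocked in 5% saccharose/4% BSA in T-TBS pH 8.0. Incubated 3 h at RT with human IgG-Fc (1 μg/ml) or human serum/plasma (1:10,000), or with blocking buffer alone as the albumin specificity control. Bound IgG detected with AP-anti-human IgG (1.2 μg/ml) and NBT/BCIP colorimetric development at pH 9.5.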

[2] = test system: serum albumin; assay: Cellulose-immobilized 13-mer peptide variants incubated with serum albumin (negative control), anti-human IgG-AP detection; settings: blocking buffer without addition, 3 h room temperature
Procedure, shortened: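 Spot membrane, (βA)(βA) spacer; T-TBS pH 8.0 wash, block 5% saccharose/4% BSA. 3 h RT with IgG-Fc 1 μg/ml, serum 1:10,000, or block buffer only (specificity control). 3× wash, AP-anti-human IgG 1.2 μg/ml, NBT/BCIP in pH 9.5 buffer.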

[3] = test system: immunoglobulins in human plasma; assay: Cellulose-immobilized 13-mer peptide variants incubated with human plasma, anti-human IgG-AP detection; settings: human plasma as sample, diluted 1:10,000 in blocking buffer, 3 h room temperature
Procedure, shortened: as §1

Row | Result for incubation with human IgG-Fc (immunoglobulin binding detection) [1] | Result for incubation with serum albumin (immunoglobulin binding detection) [2] | Result for incubation with human plasma (immunoglobulin binding detection) [3] | Substance
1 | + | 0 | + | 04S: cellulose-bound 13-mer variant DCASHLGELVWCT-(βA)(βA) (disulfide 2-12 (inferred); not fully specified (N-terminus, C-terminus); printed as DCASHLGELVWCT-(βA)(βA); also: cellulose-bound)
2 | + | 0 | + | 06N: cellulose-bound 13-mer variant DCAWHNGELVWCT-(βA)(βA) (DCAWHNGELVWCT-{βAla-βAla-cellulose}; disulfide 2-12 (inferred); not fully specified (N-terminus); printed as DCAWHNGELVWCT-(βA)(βA); reading uncertain)
3 | 0 | 0 | 0 | 07M: cellulose-bound 13-mer variant DCAWHLMELVWCT-(βA)(βA) (DCAWHLMELVWCT-{βAla-βAla-cellulose}; disulfide 2-12 (inferred); not fully specified (N-terminus); printed as DCAWHLMELVWCT-(βA)(βA); reading uncertain)
4 | 0 | 0 | 0 | 09W: cellulose-bound 13-mer variant DCAWHLGEWVWCT-(βA)(βA) (DCAWHLGEWVWCT-{βAla-βAla-cellulose}; disulfide 2-12 (inferred); reading uncertain; also: printed as DCAWHLGEWVWCT-(βA)(βA))
5 | 0 | 0 | 0 | 09S: cellulose-bound 13-mer variant DCAWHLGESVWCT-(βA)(βA) (DCAWHLGESVWCT-{βAla-βAla-cellulose}; disulfide 2-12 (inferred); reading uncertain; also: printed as DCAWHLGESVWCT-(βA)(βA))
6 | 0 | 0 | 0 | 02E: cellulose-bound 13-mer variant DEAWHLGELVWCT-(βA)(βA) (DEAWHLGELVWCT[βAla][βAla]; not fully specified; printed as DEAWHLGELVWCT-(βA)(βA); also: cellulose-bound)
7 | 0 | 0 | 0 | 07P: cellulose-bound 13-mer variant DCAWHLPELVWCT-(βA)(βA) (DCAWHLPELVWCT-{βAla-βAla-cellulose}; disulfide 2-12 (inferred); not fully specified (N-terminus); printed as DCAWHLPELVWCT-(βA)(βA); reading uncertain)
8 | 0 | 0 | 0 | 03Y: cellulose-bound 13-mer variant DCYWHLGELVWCT-(βA)(βA) (DCYWHLGELVWCT-{βAla-βAla-cellulose}; disulfide 2-12 (inferred); reading uncertain; also: printed as DCYWHLGELVWCT-(βA)(βA))
9 | + | 0 | 0 | 01N: cellulose-bound 13-mer variant NCAWHLGELVWCT-(βA)(βA) (NCAWHLGELVWCT-{βAla-βAla-cellulose}; disulfide 2-12 (inferred); reading uncertain; also: printed as NCAWHLGELVWCT-(βA)(βA))
